The source of these data is ChEMBL document CHEMBL1140786, “Synthesis of 4,5,6,7-tetrahydrothieno[3,2-c]pyridines and comparison with their isosteric 1,2,3,4-tetrahydroisoquinolines as inhibitors of phenylethanolamine N-methyltransferase” (Bioorg Med Chem, 2008).

A word on the Ki: it is the equilibrium dissociation constant of an inhibitor or competing ligand from its target.

Test [1] has as its target Alpha-2 adrenergic receptor (Rattus norvegicus). Briefly: Displacement of [3H]clonidine from adrenergic alpha-2 receptor in Sprague-Dawley rat cortex. On the technique in general: In a radioligand displacement assay an active substance lowers the binding of a labelled ligand.
The target of test [2] is Phenylethanolamine N-methyltransferase (Homo sapiens) (UniProt P11086). Briefly: Inhibition of human PNMT by radiochemical assay.
A further test is filed under the species Homo sapiens. Description: Selectivity of Ki for human PNMT over Ki for rat alpha2 adrenoceptor.
Test [3] addresses T1, Phenylethanolamine N-methyltransferase (Homo sapiens, UniProt P11086).
T1 sequence (P11086 whole entry): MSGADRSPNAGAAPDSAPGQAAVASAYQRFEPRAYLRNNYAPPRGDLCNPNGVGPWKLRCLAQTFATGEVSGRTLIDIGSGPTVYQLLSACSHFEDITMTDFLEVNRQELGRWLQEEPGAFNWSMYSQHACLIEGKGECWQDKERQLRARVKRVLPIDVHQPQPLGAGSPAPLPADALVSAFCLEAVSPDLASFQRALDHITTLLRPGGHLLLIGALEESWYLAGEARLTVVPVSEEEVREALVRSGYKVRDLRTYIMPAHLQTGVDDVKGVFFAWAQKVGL
Description: Inhibition of human PNMT by radiochemical assay.

Where only a bound is given, the exact number is not on record here.

`N#Cc1cc2c(s1)CCNC2` came in with a Ki in test [1] of 16 µM.
Turning to `NCCc1ccccc1` [PHENETHYLAMINE], the Ki in test [2] amounted to 220 µM.
With `C[C@H]1Cc2sc(C#N)cc2CN1`, the Ki in test [1] was found to be 130 µM.
Consider `O=[N+]([O-])C1=CC2CNCCC2S1` (stereo not drawn), for which the affinity in test [1] corresponds to a Ki of 18 µM. Against the preceding compound, the Ki is about 7.2-fold lower.
Consider `NCCc1cccs1`, for which the Ki worked out at 1.2 µM in test [1] and 300 µM in test [3]. Also, the Ratio Ki in the test filed under Homo sapiens is 0.004.
With `BrC1=CC2CNCCC2S1` (stereo not drawn), in test [1], the Ki was 0.38 µM.
Same read-out and setting: in the case of `C[C@@H]1Cc2sc([N+](=O)[O-])cc2CN1` it was 13 µM; in that of `FC(F)(F)C1Cc2sc3ccccc3c2CN1` (stereo not drawn), over 500 µM; in that of `C[C@H]1Cc2sc([N+](=O)[O-])cc2CN1`, 29 µM.
For `c1cc2c(s1)CCNC2`, in test [1], the Ki came to 1.5 µM.
The same measure, in the same setting: in the case of `Cc1cc2c(s1)CCNC2` it was 0.49 µM.
The compound `FC(F)(F)C1CC2SC=CC2CN1` (stereo not drawn) showed an inhibitory constant (Ki) in test [1] of 1500 µM.
Take `NCc1ccsc1`: the Ki in test [1] is 32 µM; in test [3], 110 µM. Also, in the test filed under Homo sapiens, the Ratio Ki came to 0.29.
`CC1CC2SC=CC2CN1` (stereo not drawn) yielded a Ki in test [1] of 29 µM. This lies in the double-digit micromolar range.
Same read-out and setting: for `CC(=O)c1cc2c(s1)CCNC2` the value was 9.8 µM.
`CC1Cc2ccccc2CN1` (racemic) showed a Ki in test [2] of 1.4 µM. This counts as single-digit micromolar.
The same measure, in the same setting: in the case of `CC(=O)c1ccc2c(c1)CNCC2` it was 5 µM.
As to `C[C@@H]1Cc2sc(C#N)cc2CN1`, the Ki in test [1] was 47 µM.
Same read-out and setting: for `CC1Cc2ccc(Br)cc2CN1` (racemic) the value was 1.1 µM.
In the case of `NC(=O)c1ccc2c(c1)CNCC2`, the Ki in test [2] came out at 72 µM.
`Cc1ccc2c(c1)CNCC2`: the inhibition constant Ki in test [2] was 2 µM.
On the same count and under the same terms, for `CC1Cc2sc3ccccc3c2CN1` (racemic) the value was 0.067 µM; for `c1ccc2c(c1)CCNC2` [1,2,3,4-TETRAHYDROISOQUINOLINE], 5 µM.
For `CC1Cc2sc(Br)cc2CN1` (stereo not drawn), the affinity in test [1] corresponds to a Ki of 2.3 µM.
Still for that read-out and setting: for `FC(F)(F)C1Cc2sc(Br)cc2CN1` (stereo not drawn) the value was over 1000 µM; for `NC(=O)c1cc2c(s1)CCNC2`, 4.1 µM.
Take `NCc1cccs1`: the Ki in test [1] worked out at 27 µM; in test [3], 450 µM. Besides, in the test filed under Homo sapiens, the Ratio Ki came to 0.12.
